Data reported in PubChem BioAssay AID1963437 (Molecular Pharmacology Branch, DTP, NCI, 2024).
pIC50: −log10 of the molar value.

Tested on: OVCAR-8 complex spheroid, growth inhibition
Experiment: Anticancer human tumor OVCAR-8 cell line growth inhibition [Asc];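 note: spheroids exposed to agents for 7 days before readout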;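 for viability, T/C: percent viability relative to DMSO vehicle wells taken as 100%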
Conditions: for pIC50: curve of first compound; for viability, T/C: stronger effect = lower value
Summary of the method: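 Complex spheroids combining tumor cells with HUVEC endothelial cells and human MSCs, at 37 degrees C, 5% CO2; agents tested alone or combined, half-log dilutions from at or near clinical Cmax, or 10 microM if Cmax unknown.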

Cc1nc(N2CCC3(CC2)COC(C)C3N)c(CO)nc1Sc1ccnc(N)c1Cl (configuration not stated) + Cc1c(S(C)(=O)=O)c(-c2cc(F)cc(N3CCN(c4ccc(NS(=O)(=O)c5ccc(NC(CCN6CCC(C(=O)OCCCP(=O)(O)O)CC6)CSc6ccccc6)c(S(=O)(=O)C(F)(F)F)c5)cc4)CC3)c2)c(-c2ccc(Cl)cc2)n1C(C)C
pIC50 (second compound 0.0316 µM): < 5.52 | pIC50 (second compound 0.1 µM): < 5.52 | pIC50 (second compound 0.316 µM): < 5.52 | pIC50 (second compound 1 µM): < 5.52 | pIC50 (second compound 3.16 µM): < 5.52 | pIC50 (second compound 10 µM): < 5.52 | viability, T/C (second compound 0.0316 µM, first compound 0.00949 µM): 97% | viability, T/C (second compound 0.0316 µM, first compound 0.03 µM): 96.6% | viability, T/C (second compound 0.0316 µM, first compound 0.0949 µM): 159% | viability, T/C (second compound 0.0316 µM, first compound 0.3 µM): 188% | viability, T/C (second compound 0.0316 µM, first compound 0.949 µM): 226% | viability, T/C (second compound 0.0316 µM, first compound 3 µM): 206% | viability, T/C (second compound 0.1 µM, first compound 0.00949 µM): 91.3% | viability, T/C (second compound 0.1 µM, first compound 0.03 µM): 148% | viability, T/C (second compound 0.1 µM, first compound 0.0949 µM): 152% | viability, T/C (second compound 0.1 µM, first compound 0.3 µM): 190% | viability, T/C (second compound 0.1 µM, first compound 0.949 µM): 212% | viability, T/C (second compound 0.1 µM, first compound 3 µM): 202% | viability, T/C (second compound 0.316 µM, first compound 0.00949 µM): 97.4% | viability, T/C (second compound 0.316 µM, first compound 0.03 µM): 132% | viability, T/C (second compound 0.316 µM, first compound 0.0949 µM): 176% | viability, T/C (second compound 0.316 µM, first compound 0.3 µM): 200% | viability, T/C (second compound 0.316 µM, first compound 0.949 µM): 231% | viability, T/C (second compound 0.316 µM, first compound 3 µM): 175% | viability, T/C (second compound 1 µM, first compound 0.00949 µM): 92.6% | viability, T/C (second compound 1 µM, first compound 0.03 µM): 139% | viability, T/C (second compound 1 µM, first compound 0.0949 µM): 176% | viability, T/C (second compound 1 µM, first compound 0.3 µM): 210% | viability, T/C (second compound 1 µM, first compound 0.949 µM): 205% | viability, T/C (second compound 1 µM, first compound 3 µM): 169% | viability, T/C (second compound 3.16 µM, first compound 0.00949 µM): 102% | viability, T/C (second compound 3.16 µM, first compound 0.03 µM): 139% | viability, T/C (second compound 3.16 µM, first compound 0.0949 µM): 182% | viability, T/C (second compound 3.16 µM, first compound 0.3 µM): 221% | viability, T/C (second compound 3.16 µM, first compound 0.949 µM): 167% | viability, T/C (second compound 3.16 µM, first compound 3 µM): 144% | viability, T/C (second compound 10 µM, first compound 0.00949 µM): 110% | viability, T/C (second compound 10 µM, first compound 0.03 µM): 152% | viability, T/C (second compound 10 µM, first compound 0.0949 µM): 177% | viability, T/C (second compound 10 µM, first compound 0.3 µM): 206% | viability, T/C (second compound 10 µM, first compound 0.949 µM): 174% | viability, T/C (second compound 10 µM, first compound 3 µM): 121%
